Legend:
[1] = target: Sodium/potassium-transporting ATPase; assay: Inhibition of Sodium/potassium-transporting ATPase; assay type: protein-complex assay, Homo sapiens
K562 = assay: Cytotoxicity against human K562 cells; assay type: functional; details: read-out: LC50 (the source's name)
A549 = assay: Cytotoxicity against human A549 cells; assay type: functional; details: read-out: LC50 (the source's name)

Row | Structure (SMILES) | IC50 [1] [µM] | CC50 (K562) [µM] | CC50 (A549) [µM]
1 | CC(=O)N[C@H]1[C@H](O[C@@H]2CO[C@@H](O[C@H]3CC[C@]4(C)C5=CC[C@]6(C)[C@@H]([C@H](C)CC(=O)C=C(C)C)CC[C@H]6[C@@]5(O)CC[C@@]4(O)C3(C)C)[C@H](O[C@@H]3O[C@H](CO[C@@H]4O[C@H](CO)[C@@H](O)[C@H](O)[C@H]4O[C@@H]4O[C@H](CO)[C@@H](O)[C@H](O)[C@H]4O)[C@@H](O)[C@H](O)[C@H]3NC(C)=O)[C@H]2O)O[C@H](CO)[C@H](O)[C@@H]1O [SARASINOSIDE O] | > 75.7 | 61.5 | 54.7
2 | CC(=O)N[C@H]1[C@H](O[C@@H]2CO[C@@H](O[C@H]3CC[C@]4(C)C5=C(CC[C@H]4C3(C)C)[C@@H]3CC[C@H]([C@H](C)CC(=O)C=C(C)C)[C@@]3(C)CC5)[C@H](O[C@@H]3O[C@H](CO[C@@H]4O[C@H](CO)[C@@H](O)[C@H](O)[C@H]4O[C@@H]4O[C@H](CO)[C@@H](O)[C@H](O)[C@H]4O)[C@@H](O)[C@H](O)[C@H]3NC(C)=O)[C@H]2O)O[C@H](CO)[C@H](O)[C@@H]1O [SARASINOSIDE A1] | 46.5 | 7.4 | 7.6
3 | CC(=O)N[C@H]1[C@H](O[C@@H]2CO[C@@H](O[C@H]3CC[C@]4(C)C5=C(CC[C@H]4C3(C)C)[C@@H]3CC[C@H]([C@H](C)CC(=O)CC(C)(C)O)[C@@]3(C)CC5)[C@H](O[C@@H]3O[C@H](CO[C@@H]4O[C@H](CO)[C@@H](O)[C@H](O)[C@H]4O[C@@H]4O[C@H](CO)[C@@H](O)[C@H](O)[C@H]4O)[C@@H](O)[C@H](O)[C@H]3NC(C)=O)[C@H]2O)O[C@H](CO)[C@H](O)[C@@H]1O [SARASINOSIDE J] | > 76.5 | 20.8 | 10.3
4 | CC(=O)N[C@H]1[C@H](O[C@@H]2CO[C@@H](O[C@H]3CC[C@]4(C)C5=CC[C@@]6(C)C(=C(CC[C@H]4C3(C)C)O5)CC[C@@H]6[C@H](C)CC(=O)C=C(C)C)[C@H](O[C@@H]3O[C@H](CO[C@@H]4O[C@H](CO)[C@@H](O)[C@H](O)[C@H]4O[C@@H]4O[C@H](CO)[C@@H](O)[C@H](O)[C@H]4O)[C@@H](O)[C@H](O)[C@H]3NC(C)=O)[C@H]2O)O[C@H](CO)[C@H](O)[C@@H]1O [SARASINOSIDE M] | > 76.7 | 12.1 | 7.7
5 | CC(=O)N[C@H]1[C@H](O[C@@H]2CO[C@@H](O[C@H]3CC[C@@]4(C)[C@@H](CCC5=C6[C@H](O)C[C@H]([C@H](C)CC(=O)C=C(C)C)[C@@]6(C)CC[C@@]54O)C3(C)C)[C@H](O[C@@H]3O[C@H](CO[C@@H]4O[C@H](CO)[C@@H](O)[C@H](O)[C@H]4O[C@@H]4O[C@H](CO)[C@@H](O)[C@H](O)[C@H]4O)[C@@H](O)[C@H](O)[C@H]3NC(C)=O)[C@H]2O)O[C@H](CO)[C@H](O)[C@@H]1O [SARASINOSIDE H1] | > 75.7 | 37.4 | 14.2
6 | CC(=O)N[C@H]1[C@H](O[C@@H]2CO[C@@H](O[C@H]3CC[C@]4(C)C5=C(CC[C@H]4C3(C)C)[C@@H]3CC[C@H]([C@H](C)CC(=O)C=C(C)C)[C@@]3(C)CC5)[C@H](O[C@@H]3O[C@H](CO)[C@@H](O)[C@H](O)[C@H]3NC(C)=O)[C@H]2O)O[C@H](CO)[C@H](O)[C@@H]1O (relative stereo) | 56.1 | 20.2 | 10.7
7 | CO[C@@H]1C[C@H]([C@H](C)CC(=O)C=C(C)C)[C@@]2(C)CC[C@@]3(O)C(=C12)CC[C@H]1C(C)(C)[C@@H](O[C@@H]2OC[C@@H](O[C@@H]4O[C@H](CO)[C@H](O)[C@H](O)[C@H]4NC(C)=O)[C@H](O)[C@H]2O[C@@H]2O[C@H](CO[C@@H]4O[C@H](CO)[C@@H](O)[C@H](O)[C@H]4O[C@@H]4O[C@H](CO)[C@@H](O)[C@H](O)[C@H]4O)[C@@H](O)[C@H](O)[C@H]2NC(C)=O)CC[C@@]13C [SARASINOSIDE H2] | > 74.9 | 42.7 | > 100
8 | COc1cccc2c1C(=O)c1c(O)c3c(c(O)c1C2=O)C[C@@](O)(C(=O)CO)C[C@@H]3O[C@H]1C[C@H](N)[C@H](O)[C@H](C)O1 [DOXORUBICIN] |  | 4.7 | 1.7
9 | CC(=O)N[C@H]1[C@H](O[C@@H]2CO[C@@H](O[C@H]3CC[C@]4(C)C5=C(CC[C@H]4C3(C)C)C3=CC[C@H]([C@H](C)CC(=O)C=C(C)C)[C@@]3(C)CC5)[C@H](O[C@@H]3O[C@H](CO[C@@H]4O[C@H](CO)[C@@H](O)[C@H](O)[C@H]4O[C@@H]4O[C@H](CO)[C@@H](O)[C@H](O)[C@H]4O)[C@@H](O)[C@H](O)[C@H]3NC(C)=O)[C@H]2O)O[C@H](CO)[C@H](O)[C@@H]1O [SARASINOSIDE A3] | > 77.7 | 24.8 | 10.1
10 | CC(=O)N[C@H]1[C@H](O[C@@H]2CO[C@@H](O[C@H]3CC[C@]4(C)C5=CC[C@]6(C)[C@@H]([C@H](C)CC(=O)C=C(C)C)CC[C@H]6C5=CC[C@H]4C3(C)C)[C@H](O[C@@H]3O[C@H](CO[C@@H]4O[C@H](CO)[C@@H](O)[C@H](O)[C@H]4O[C@@H]4O[C@H](CO)[C@@H](O)[C@H](O)[C@H]4O)[C@@H](O)[C@H](O)[C@H]3NC(C)=O)[C@H]2O)O[C@H](CO)[C@H](O)[C@@H]1O [SARASINOSIDE A2] | > 77.7 | 8.5 | 7.6
11 | CC(=O)N[C@H]1[C@H](O[C@@H]2CO[C@@H](O[C@H]3CC[C@@]4(C)[C@@H](CCC5=C6CC[C@H]([C@H](C)CC(=O)C=C(C)C)[C@@]6(C)CC[C@@]4(O)O5)C3(C)C)[C@H](O[C@@H]3O[C@H](CO[C@@H]4O[C@H](CO)[C@@H](O)[C@H](O)[C@H]4O[C@@H]4O[C@H](CO)[C@@H](O)[C@H](O)[C@H]4O)[C@@H](O)[C@H](O)[C@H]3NC(C)=O)[C@H]2O)O[C@H](CO)[C@H](O)[C@@H]1O [SARASINOSIDE Q] | > 75.7 | 17.9 | 14
12 | CC(=O)N[C@H]1[C@H](O[C@H]2[C@H](O[C@H]3CC[C@]4(C)C5=C(CC[C@H]4C3(C)C)[C@@H]3CC[C@H]([C@H](C)CC(=O)C=C(C)C)[C@@]3(C)CC5)OC[C@@H](O)[C@@H]2O)O[C@H](CO[C@@H]2O[C@H](CO)[C@@H](O)[C@H](O)[C@H]2O[C@@H]2O[C@H](CO)[C@@H](O)[C@H](O)[C@H]2O)[C@@H](O)[C@@H]1O | 54.7 | 18.7 | 9.1
13 | CC(=O)N[C@H]1[C@H](O[C@@H]2CO[C@@H](O[C@H]3CC[C@@]4(C)[C@@H](CC[C@@]5(O)[C@]4(O)CC=C4[C@@H]([C@H](C)CC(=O)C=C(C)C)CC[C@@]45C)C3(C)C)[C@H](O[C@@H]3O[C@H](CO[C@@H]4O[C@H](CO)[C@@H](O)[C@H](O)[C@H]4O[C@@H]4O[C@H](CO)[C@@H](O)[C@H](O)[C@H]4O)[C@@H](O)[C@H](O)[C@H]3NC(C)=O)[C@H]2O)O[C@H](CO)[C@H](O)[C@@H]1O [SARASINOSIDE R] | > 75.7 | > 100 | 14.7
14 | CC(=O)N[C@H]1[C@H](O[C@@H]2CO[C@@H](O[C@H]3CC[C@]4(C)C5=CC[C@]6(C)[C@@H]([C@H](C)CC(=O)C=C(C)C)CC[C@H]6[C@]5(O)CC[C@]4(O)C3(C)C)[C@H](O[C@@H]3O[C@H](CO[C@@H]4O[C@H](CO)[C@@H](O)[C@H](O)[C@H]4O[C@@H]4O[C@H](CO)[C@@H](O)[C@H](O)[C@H]4O)[C@@H](O)[C@H](O)[C@H]3NC(C)=O)[C@H]2O)O[C@H](CO)[C@H](O)[C@@H]1O [SARASINOSIDE P] | > 75.7 | 11.6 | 17.9
15 | CC(C)=CC(=O)C[C@@H](C)[C@H]1CCC2=C3CC[C@H]4C(C)(C)[C@@H](O)CC[C@]4(C)[C@H]3CC[C@@]21C | > 234 | 69.4 | 41.6

— ChEMBL document CHEMBL2069302, “Nortriterpene glycosides of the sarasinoside class from the sponge Lipastrotethya sp” (J Nat Prod, 2012)
